Activity calls are given as the source filed them.
Tests used:
[1] = cytotoxicity in HEK-293T cells, dose response, cytotoxicity control for TCR NF-kB inhibitor project, luminescence, T-cell screen hits (AID 489026); type: functional, cell-based;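 also: cells exposed to compound about 14 hours before the viability readout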
[2] = biological target: T1, Protein RecA (Mycobacterium tuberculosis, UniProt P9WHJ3); experiment: Fluorescence Cell-Free Homogeneous Dose Retest to Identify Inhibitors of RecA-Intein Splicing Activity. [Related pubchem assays (depositor defined):AID2097, AID2223, AID489010, AID492950]; type: functional
T1 sequence (P9WHJ3 whole entry): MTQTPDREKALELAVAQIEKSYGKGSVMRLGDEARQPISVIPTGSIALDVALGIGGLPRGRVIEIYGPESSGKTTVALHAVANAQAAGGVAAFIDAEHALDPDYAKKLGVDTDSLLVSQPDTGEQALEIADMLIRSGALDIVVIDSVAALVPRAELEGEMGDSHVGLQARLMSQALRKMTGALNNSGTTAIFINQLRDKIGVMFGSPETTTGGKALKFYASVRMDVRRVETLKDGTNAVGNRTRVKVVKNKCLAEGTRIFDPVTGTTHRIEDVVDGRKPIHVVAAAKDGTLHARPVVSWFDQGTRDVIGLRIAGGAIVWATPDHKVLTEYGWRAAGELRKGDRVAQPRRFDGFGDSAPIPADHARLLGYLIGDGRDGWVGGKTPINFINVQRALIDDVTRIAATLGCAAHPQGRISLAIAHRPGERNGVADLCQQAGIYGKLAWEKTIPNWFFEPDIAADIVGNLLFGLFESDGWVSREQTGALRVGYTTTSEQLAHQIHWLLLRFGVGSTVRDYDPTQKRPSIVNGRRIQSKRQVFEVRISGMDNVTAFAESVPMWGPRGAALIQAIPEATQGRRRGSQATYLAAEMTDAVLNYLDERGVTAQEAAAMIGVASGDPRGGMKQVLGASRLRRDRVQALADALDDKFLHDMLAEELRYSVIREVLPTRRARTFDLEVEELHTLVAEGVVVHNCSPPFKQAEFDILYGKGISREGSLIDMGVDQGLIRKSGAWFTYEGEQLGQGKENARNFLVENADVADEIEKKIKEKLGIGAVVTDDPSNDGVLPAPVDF

[3] = biological target: G-protein coupled receptor 55 (Homo sapiens, UniProt Q9Y2T6); experiment: GPR55 antagonists, SAR follow-up, counter-screen for GPR35 antagonist project, imaging, image-based (AID 2397); type: functional
Sequence of G-protein coupled receptor 55 (Q9Y2T6 whole entry): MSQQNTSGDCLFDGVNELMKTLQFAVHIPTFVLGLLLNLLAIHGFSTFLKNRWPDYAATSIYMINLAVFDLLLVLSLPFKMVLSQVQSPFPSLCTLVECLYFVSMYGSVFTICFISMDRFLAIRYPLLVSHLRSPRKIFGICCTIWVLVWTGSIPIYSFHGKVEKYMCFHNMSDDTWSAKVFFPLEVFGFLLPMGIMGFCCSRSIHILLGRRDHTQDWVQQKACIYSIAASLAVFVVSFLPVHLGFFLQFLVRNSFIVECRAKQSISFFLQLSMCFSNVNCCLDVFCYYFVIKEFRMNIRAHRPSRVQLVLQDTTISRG

[4] = biological target: T2, G-protein coupled receptor 35 (Homo sapiens, UniProt Q9HC97); experiment: SAR Analysis for the identification of Selective Antagonists of ERK1/2 Activity in GPR35-Overexpressing U2OS Cells. [Related pubchem assays: 2079, 2058 ]; type: functional, cell-based
T2 sequence (Q9HC97 whole entry): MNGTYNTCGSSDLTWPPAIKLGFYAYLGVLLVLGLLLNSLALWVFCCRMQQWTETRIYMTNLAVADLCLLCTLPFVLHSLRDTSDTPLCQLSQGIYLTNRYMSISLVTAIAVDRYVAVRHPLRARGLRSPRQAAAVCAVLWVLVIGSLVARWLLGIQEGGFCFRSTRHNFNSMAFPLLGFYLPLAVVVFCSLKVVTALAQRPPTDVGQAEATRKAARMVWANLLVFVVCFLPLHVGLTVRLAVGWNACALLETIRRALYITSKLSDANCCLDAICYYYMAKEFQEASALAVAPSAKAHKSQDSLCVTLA

[5] = biological target: T3, Tyrosine-protein phosphatase non-receptor type 22 (Homo sapiens, UniProt Q9Y2R2); experiment: SAR LYP1 Fluorescent Assay using OMFP substrate for In Vitro dose response studies - Set 3. [Related pubchem assays (depositor defined):AID1779, AID1784, AID2140, AID2686]; type: functional
T3 sequence (Q9Y2R2 whole entry): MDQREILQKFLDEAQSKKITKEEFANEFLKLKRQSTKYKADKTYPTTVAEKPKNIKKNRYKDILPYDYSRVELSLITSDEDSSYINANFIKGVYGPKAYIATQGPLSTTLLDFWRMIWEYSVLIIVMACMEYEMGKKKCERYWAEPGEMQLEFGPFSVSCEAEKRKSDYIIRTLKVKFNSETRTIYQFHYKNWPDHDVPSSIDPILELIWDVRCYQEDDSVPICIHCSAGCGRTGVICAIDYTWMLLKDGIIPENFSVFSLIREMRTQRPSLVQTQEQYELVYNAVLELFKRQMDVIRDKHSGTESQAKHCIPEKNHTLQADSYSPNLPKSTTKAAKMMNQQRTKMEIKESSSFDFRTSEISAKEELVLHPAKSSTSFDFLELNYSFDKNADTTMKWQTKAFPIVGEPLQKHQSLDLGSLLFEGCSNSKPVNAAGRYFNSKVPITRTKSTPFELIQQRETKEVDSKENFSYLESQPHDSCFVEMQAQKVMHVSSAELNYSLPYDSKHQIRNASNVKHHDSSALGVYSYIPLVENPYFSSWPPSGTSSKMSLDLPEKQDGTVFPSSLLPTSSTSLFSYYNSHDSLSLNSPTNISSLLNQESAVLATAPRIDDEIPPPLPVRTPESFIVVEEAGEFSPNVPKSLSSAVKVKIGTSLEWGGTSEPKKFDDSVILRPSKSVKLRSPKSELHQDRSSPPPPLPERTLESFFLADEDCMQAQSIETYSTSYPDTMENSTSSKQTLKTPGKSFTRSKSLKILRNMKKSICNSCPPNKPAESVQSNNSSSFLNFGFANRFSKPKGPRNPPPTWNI

[6] = biological target: T2, G-protein coupled receptor 35; experiment: GPR35 antagonists blocking zaprinast-driven arrestin recruitment, primary screen, imaging, U2OS, beta-arrestin-GFP, zaprinast agonist (AID 2058); type: functional;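 also: antagonist potency meaning inhibition of agonist-induced arrestin redistribution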
[7] = biological target: Tyrosine-protein phosphatase non-receptor type 12 (Homo sapiens, UniProt Q05209); experiment: SAR Selectivity Analysis of small molecule inhibitors of PEST using pCAP in a fluorescence assay. [Related pubchem assays (depositor defined):AID1779, AID1784, AID2135]; type: functional
Sequence of Tyrosine-protein phosphatase non-receptor type 12 (Q05209 whole entry): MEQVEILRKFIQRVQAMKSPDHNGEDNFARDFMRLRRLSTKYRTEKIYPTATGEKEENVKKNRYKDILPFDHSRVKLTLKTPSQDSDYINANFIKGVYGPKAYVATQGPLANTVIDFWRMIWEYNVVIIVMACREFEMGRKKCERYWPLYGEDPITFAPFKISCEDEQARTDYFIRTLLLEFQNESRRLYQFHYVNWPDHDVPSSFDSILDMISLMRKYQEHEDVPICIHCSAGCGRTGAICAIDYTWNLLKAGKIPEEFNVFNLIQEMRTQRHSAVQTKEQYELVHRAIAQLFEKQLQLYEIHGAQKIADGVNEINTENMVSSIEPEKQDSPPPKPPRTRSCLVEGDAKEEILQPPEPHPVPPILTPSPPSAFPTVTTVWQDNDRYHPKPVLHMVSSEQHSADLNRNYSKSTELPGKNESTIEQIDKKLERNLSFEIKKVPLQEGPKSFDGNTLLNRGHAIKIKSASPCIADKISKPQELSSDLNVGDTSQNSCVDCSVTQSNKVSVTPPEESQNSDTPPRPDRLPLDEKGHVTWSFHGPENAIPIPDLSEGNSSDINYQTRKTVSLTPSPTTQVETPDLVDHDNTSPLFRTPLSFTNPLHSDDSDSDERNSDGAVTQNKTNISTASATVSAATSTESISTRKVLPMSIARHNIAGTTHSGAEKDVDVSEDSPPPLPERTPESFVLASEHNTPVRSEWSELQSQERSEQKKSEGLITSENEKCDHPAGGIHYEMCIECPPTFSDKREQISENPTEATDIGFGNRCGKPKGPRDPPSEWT

[8] = biological target: T3, Tyrosine-protein phosphatase non-receptor type 22; experiment: LYP (PTPN22) phosphatase inhibitor potency, SAR follow-up, biochemical, pCAP fluorogenic substrate, fluorescence, set 3 (AID 449727); type: functional
[9] = biological target: T4, Replicative DNA helicase DnaB (Mycobacterium tuberculosis, UniProt P9WMR3); experiment: DnaB intein splicing inhibitors, dose response, biochemical, cell-free fluorescence (AID 449749); type: functional
T4 sequence (P9WMR3 whole entry): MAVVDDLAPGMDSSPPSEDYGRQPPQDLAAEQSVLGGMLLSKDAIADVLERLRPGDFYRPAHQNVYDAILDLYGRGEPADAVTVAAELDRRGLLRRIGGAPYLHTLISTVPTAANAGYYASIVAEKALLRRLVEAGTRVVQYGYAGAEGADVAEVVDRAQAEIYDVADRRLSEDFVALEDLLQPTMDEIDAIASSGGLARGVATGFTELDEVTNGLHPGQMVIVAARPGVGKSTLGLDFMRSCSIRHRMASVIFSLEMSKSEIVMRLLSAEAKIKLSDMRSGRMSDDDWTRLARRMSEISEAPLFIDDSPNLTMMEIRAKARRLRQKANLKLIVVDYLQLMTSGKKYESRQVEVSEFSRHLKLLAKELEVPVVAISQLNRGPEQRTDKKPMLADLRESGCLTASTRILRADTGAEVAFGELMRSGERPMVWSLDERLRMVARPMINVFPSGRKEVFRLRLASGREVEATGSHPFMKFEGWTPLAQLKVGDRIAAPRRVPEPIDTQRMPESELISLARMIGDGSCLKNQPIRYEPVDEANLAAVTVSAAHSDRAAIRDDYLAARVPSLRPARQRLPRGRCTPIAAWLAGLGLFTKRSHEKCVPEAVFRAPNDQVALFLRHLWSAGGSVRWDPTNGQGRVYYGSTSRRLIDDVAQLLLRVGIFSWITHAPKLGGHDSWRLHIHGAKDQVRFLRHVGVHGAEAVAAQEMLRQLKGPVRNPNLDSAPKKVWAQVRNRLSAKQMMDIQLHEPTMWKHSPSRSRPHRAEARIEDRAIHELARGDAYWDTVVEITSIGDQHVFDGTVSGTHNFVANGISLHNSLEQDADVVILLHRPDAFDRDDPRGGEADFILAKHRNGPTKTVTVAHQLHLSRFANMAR

[10] = biological target: DNA dC->dU-editing enzyme APOBEC-3A (Homo sapiens, UniProt P31941); experiment: APOBEC3A DNA deaminase inhibitors, dose response, biochemical (AID 504722); type: functional
Sequence of DNA dC->dU-editing enzyme APOBEC-3A (P31941 whole entry): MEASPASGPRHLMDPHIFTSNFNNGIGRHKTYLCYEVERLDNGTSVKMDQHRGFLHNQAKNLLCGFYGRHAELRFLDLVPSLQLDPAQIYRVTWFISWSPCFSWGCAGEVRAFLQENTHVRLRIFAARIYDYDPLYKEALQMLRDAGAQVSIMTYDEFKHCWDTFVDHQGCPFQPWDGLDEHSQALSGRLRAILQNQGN

[11] = biological target: Phosphomannomutase 2 (Homo sapiens, UniProt O15305); experiment: Counter screen SAR assay for PMM2 inhibitors via a fluorescence intensity assay. [Related pubchem assays (depositor defined):AID1545, AID1574]
Sequence of Phosphomannomutase 2 (O15305 whole entry): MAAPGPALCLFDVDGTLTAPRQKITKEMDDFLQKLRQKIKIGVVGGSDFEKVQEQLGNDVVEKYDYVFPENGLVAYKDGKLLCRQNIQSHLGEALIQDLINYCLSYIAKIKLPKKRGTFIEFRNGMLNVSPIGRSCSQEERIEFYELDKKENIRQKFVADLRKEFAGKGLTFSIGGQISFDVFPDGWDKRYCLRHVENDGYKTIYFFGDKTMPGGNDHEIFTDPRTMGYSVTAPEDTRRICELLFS

[12] = biological target: DNA dC->dU-editing enzyme APOBEC-3G (Homo sapiens, UniProt Q9HC16); experiment: Dose Response confirmation of small molecule APOBEC3G DNA Deaminase Inhibitors via a fluorescence-based single-stranded DNA deaminase assay. [Related pubchem assays (depositor defined):AID493012, AID493028]; type: functional
Sequence of DNA dC->dU-editing enzyme APOBEC-3G (Q9HC16 whole entry): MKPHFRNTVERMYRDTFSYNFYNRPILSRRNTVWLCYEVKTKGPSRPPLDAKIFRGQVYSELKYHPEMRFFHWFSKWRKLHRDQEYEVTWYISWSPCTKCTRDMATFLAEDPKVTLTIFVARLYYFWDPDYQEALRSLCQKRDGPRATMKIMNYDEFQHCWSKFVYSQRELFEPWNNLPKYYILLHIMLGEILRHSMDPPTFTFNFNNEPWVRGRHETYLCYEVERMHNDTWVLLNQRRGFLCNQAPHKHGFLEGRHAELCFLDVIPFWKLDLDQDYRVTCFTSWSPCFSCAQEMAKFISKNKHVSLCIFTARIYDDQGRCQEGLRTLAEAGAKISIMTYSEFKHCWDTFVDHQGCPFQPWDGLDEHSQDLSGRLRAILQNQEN

[13] = biological target: T5, Mannose-6-phosphate isomerase (Homo sapiens, UniProt P34949); experiment: PMI enzyme inhibitors, confirmation, biochemical, fluorescence intensity (AID 1535)
T5 sequence (P34949 whole entry): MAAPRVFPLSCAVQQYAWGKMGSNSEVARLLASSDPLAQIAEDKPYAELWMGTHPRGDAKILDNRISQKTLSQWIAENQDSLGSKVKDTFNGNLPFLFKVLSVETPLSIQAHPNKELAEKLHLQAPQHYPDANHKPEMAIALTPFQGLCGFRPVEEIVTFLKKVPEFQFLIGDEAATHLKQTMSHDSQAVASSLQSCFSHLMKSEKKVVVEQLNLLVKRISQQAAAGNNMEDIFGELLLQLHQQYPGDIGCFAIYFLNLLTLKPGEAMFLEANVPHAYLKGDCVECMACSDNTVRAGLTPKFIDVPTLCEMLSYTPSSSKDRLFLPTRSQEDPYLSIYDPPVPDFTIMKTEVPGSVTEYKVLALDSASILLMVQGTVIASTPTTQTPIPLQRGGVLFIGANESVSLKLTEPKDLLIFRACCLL

Q: With `Nc1nc(-c2ccccc2)cc(N2CCCCC2)n1` as the compound, how does the IC50 [1] read?
A: Its IC50 is > 80 µM (inactive).

Q: With `O=C(CCCN1C(=O)/C(=C/c2ccccc2)SC1=S)Nc1ccc(C(=O)O)c(O)c1` as the compound, how does the EC50 [2] read?
A: The EC50 was 15.4 µM (active).

Q: What about the IC50 [3] of the same compound?
A: The IC50 was > 32 µM (inactive).

Q: And the IC50 [4]?
A: The IC50 was 2.67 µM (active).

Q: And the IC50 [5]?
A: Its IC50 is > 100 µM (inactive).

Q: What about the IC50 [6] of the same compound?
A: The IC50 was < 0.5 µM (active).

Q: What about the IC50 [7] of the same compound?
A: Its IC50 is 17.2 µM (active).

Q: What about the IC50 [8] of the same compound?
A: The IC50 was 85 µM (active).

Q: What about the AC50 [9] of the same compound?
A: The AC50 was 12.3 µM (active).

Q: Which results are given for `COc1ccc(OC)c(/N=c2\ssnc2Cl)c1`?
A: IC50 [10]: > 100 µM (inactive); IC50 [11]: > 100 µM (inactive); IC50 [12]: 15.4 µM (active); IC50 [13]: 4.35 µM (active)

Q: What does the source list for `Cc1ccc(/N=c2\ssnc2Cl)cc1[N+](=O)[O-]`?
A: IC50 [11]: > 100 µM (inactive); IC50 [13]: 4.46 µM (active)
